Measured values published in patent publication US9974856B2, “Method of treating androgen deficiency in women” (Parapharm Ltd., priority 2009, dated 2018).

Test system: human subject with diagnosed osteopenia
Assay: Mineral bone density (forearm scanner DXT-200) and serum calcium in a subject with osteopenia
Assay type: in vivo
Settings: after a one-month break in the administration, following six-month course of 1 g 3 times a day
Protocol: A human subject. The mineral bone density of T−1.4 was measured in the distal antibrachium by means of the forearm scanner DXT-200 available from Osteometer MediTech, Inc. Osteopenia was diagnosed and 1 g of calcium gluconate was administered 3 times a day. A six-month course of preventive medication was conducted. […] That is, the mineral bone density (MBD) became less. […] For reference: MBD normal value—the values of T criterion with a standard deviation of +1 to −1 from the peak bone mass; • 1st degree osteopenia—MBD of −1 to −1.5; • 2nd degree osteopenia—MBD of −1.5 to −2; • 3rd degree osteopenia—MBD of −2 to −2.5; • 1st degree osteoporosis—MBD of −2.5 and less without fractures; • 2nd degree osteoporosis—MBD of −2.5 and less with osteoporotic bone fractures. The densitometric T scale presents the number of standard deviations up and down an average bone mass value. The T criterion decreases in parallel with a gradual reduction in the bone mass with age and is used to evaluate the MBD in adults.
The same human subject with diagnosed osteopenia and the mineral bone density of T −1.6 was administered one capsule of the claimed biologically active food additive 3 times a day A six-month preventive medication course was conducted following the pattern of one-month administration/one-month break. The mineral bone density increased to T −1.2. The serum calcium value normalized. […]

## calcium gluconate
  serum calcium value: below the normal value
